Test results taken from publication PMC6009861, “Development of terphenyl-2-methyloxazol-5(4H)-one derivatives as selective reversible MAGL inhibitors” (Journal of Enzyme Inhibition and Medicinal Chemistry, 2017).

Assays:
human FAAH = biological target: T1, human FAAH (Homo sapiens, UniProt O00519); experiment: FAAH inhibition assay (AMC arachidonoyl amide, fluorescence); assay type: biochemical; details: AMC arachidonoyl amide 10 µM, 30 min, RT
T1 sequence (O00519 1-579): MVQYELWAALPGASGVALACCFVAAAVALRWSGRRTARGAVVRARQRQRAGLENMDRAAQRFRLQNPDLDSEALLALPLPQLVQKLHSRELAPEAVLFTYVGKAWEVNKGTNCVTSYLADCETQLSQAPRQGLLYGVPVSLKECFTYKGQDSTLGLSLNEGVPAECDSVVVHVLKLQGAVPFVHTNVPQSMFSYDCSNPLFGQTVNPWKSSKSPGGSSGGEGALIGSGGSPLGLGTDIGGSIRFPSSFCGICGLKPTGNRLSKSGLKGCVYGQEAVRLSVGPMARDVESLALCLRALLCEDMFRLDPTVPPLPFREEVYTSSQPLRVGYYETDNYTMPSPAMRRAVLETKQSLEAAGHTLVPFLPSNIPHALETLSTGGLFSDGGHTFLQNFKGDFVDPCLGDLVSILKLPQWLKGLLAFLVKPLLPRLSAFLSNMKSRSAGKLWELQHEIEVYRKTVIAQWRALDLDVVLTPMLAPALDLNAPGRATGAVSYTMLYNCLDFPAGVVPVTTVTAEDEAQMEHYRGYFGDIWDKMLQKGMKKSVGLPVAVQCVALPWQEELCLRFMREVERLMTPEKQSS
Description: The IC50 values for compounds were generated in 96-well microtiter plates. The FAAH reaction was conducted at RT at a final volume of 200 µL in 125 mM Tris buffer, pH 9.0, containing 1 mM EDTA. A total of 150 µL of AMC arachidonoyl amide 13.3 µM (final concentration = 10 µM) was added to 10 µL of DMSO containing the appropriate amount of compound. The reaction was initiated by the addition of 40 µL of FAAH (0.9 µg/well) in such a way that the assay was linear over 30 min. After the reaction had proceeded for 30 min, fluorescence values were then measured by using a VictorX3 PerkinElmer instrument at an excitation wavelength of 340 nm and an emission of 460 nm. Two reactions were also run: one reaction containing no compounds and the second one containing neither inhibitor nor enzyme. IC50 values were derived from experimental data using the Sigmoidal dose − response fitting of GraphPad Prism software as reported earlier. To remove possible false-positive results, for each compound concentration, a blank analysis was carried out, and the final fluorescence results were obtained detracting the fluorescence produced by the presence of all the components except FAAH in the same conditions.

MAGL [1] = biological target: T2, MAGL (Homo sapiens, UniProt Q99685); experiment: MAGL-inhibition assay (4-NPA substrate, absorbance 405 nm); assay type: biochemical; details: for MAGL/FAAH selectivity: ratio of FAAH IC50 to MAGL IC50 (fold)
T2 construct: purchased Cayman Chemical
T2 sequence (Q99685 1-303): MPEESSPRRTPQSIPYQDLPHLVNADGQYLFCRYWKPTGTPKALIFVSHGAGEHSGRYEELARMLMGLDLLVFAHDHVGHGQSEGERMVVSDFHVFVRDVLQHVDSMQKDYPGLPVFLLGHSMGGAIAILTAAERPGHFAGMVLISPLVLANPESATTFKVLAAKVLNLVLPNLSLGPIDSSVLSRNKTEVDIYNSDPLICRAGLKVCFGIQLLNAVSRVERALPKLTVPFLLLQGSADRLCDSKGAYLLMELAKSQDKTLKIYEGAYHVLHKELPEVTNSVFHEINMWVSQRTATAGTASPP
Description: Human recombinant MAGL, and 4-nitrophenylacetate substrate (4-NPA) were from Cayman Chemical. The IC50 values for compounds were generated in 96-well microtiter plates. The MAGL reaction was conducted at RT at a final volume of 200 µL in 10 mM Tris buffer, pH 7.2, containing 1 mM EDTA. A total of 150 µL of 4-NPA 133.3 µM (final concentration = 100 µM) was added to 10 µL of DMSO containing the appropriate amount of compound. The reaction was initiated by the addition of 40 µL of MAGL (11 ng/well) in such a way that the assay was linear over 30 min. […] After the reaction had proceeded for 30 min, absorbance values were then measured by using a VictorX3 PerkinElmer instrument at 405 nm. Two reactions were also run: one reaction containing no compounds and the second one containing neither inhibitor nor enzyme. IC50 values were derived from experimental data using the Sigmoidal dose–response fitting of GraphPad Prism software as reported earlier.

OVCAR3 = experiment: Cell viability assay, OVCAR3; assay type: cell-based; details: OVCAR-3; OVCAR3 human ovarian cancer cells, 96 h
Description: (§1) COV318, OVCAR-3 (from ATCC) and hMSC (from AB Cell-Bio) were maintained at 37 °C in a humidified atmosphere containing 5% CO2 accordingly to the supplier. Normal (1.5 × 10^4) and tumor (5 × 10^2) cells were plated in 96-well culture plates. The day after seeding, vehicle or compounds were added at different concentrations to the medium. Compound was added to the cell culture at a concentration ranging from 200 to 0.02 µM. Cell viability was measured after 96 h according to the supplier (Promega, G7571) with a Tecan F200 instrument. IC50 values were calculated from logistical dose–response curves. Averages were obtained from three independent experiments, and error bars are standard deviations (n = 3).

MAGL [2] = biological target: T2, MAGL; experiment: MAGL preincubation assay; assay type: biochemical; details: preincubation 0, 30 and 60 min with hMAGL
Description: The MAGL reaction was conducted at RT at a final volume of 200 µL in 10 mM Tris buffer, pH 7.2, containing 1 mM EDTA. A total of 150 µL of MAGL (11 ng/well) was added to 10 µL of DMSO containing the appropriate amount of compound. After 0, 30, and 60 min of incubation time the reaction was initiated by the addition of 40 µL of 4-NPA 500 µM. The enzyme activity was then measured according to the procedure described above.

[3] = system: noncancerous human mesenchymal stem cells (hMSC); experiment: Cell viability assay, hMSC; assay type: cell-based; details: 96 h
Description: as §1

MAGL [4] = biological target: T2, MAGL; experiment: MAGL dilution assay; assay type: biochemical; details: 10 µM incubated 60 min, then 40x dilution (final 0.25 µM)
Description: The enzyme (880 ng in 75 µL of Tris buffer, pH 7.2) was incubated during 60 min at RT with 5 µL of compound 20b (concentration of 10 µM in the mixture) dissolved in DMSO. The MAGL-inhibitor mixture was then diluted 40-fold with the buffer. After 15 min of incubation, the reaction was initiated on a 160 µL aliquot by the addition of 40 µL of 4-NPA 500 µM and the enzyme activity was measured according to the procedure described above.

CAOV3 = experiment: Cell viability assay, CAOV3; assay type: cell-based; details: Caov-3; CAOV3 human ovarian cancer cells, 96 h
[5] = system: EAE mouse model of multiple sclerosis; parameters: method as in PMID 25298214; details: cited from earlier work
[6] = human recombinant MAGL, 4-NPA 100 µM, 30 min, RT

| IC50 (human FAAH) [µM] | IC50 (MAGL [1]; [6]) [µM] | MAGL/FAAH selectivity (MAGL [1]) | SMILES | also measured |
| --- | --- | --- | --- | --- |
| 0.0147 ± 0.0002 | 0.144 ± 0.004 | 0.1 | COc1nn(-c2ccc(NC(=O)OCc3ccccc3)c(C)c2)c(=O)o1 [CAY10499, reference compound] | – |
| 2.32 ± 0.051 | 0.837 ± 0.018 | 3 | CC1=N/C(=C\c2ccc(-c3ccccc3)c(-c3ccccc3)c2)C(=O)O1 [Compound 5, (Z)-4-[(1,1′:2′,1′′-Terphenyl)-4′-ylmethylene]-2-methyloxazol-5(4H)-one] | – |
| 18.2 ± 0.904 | 0.546 ± 0.02 | 33 | CC1=N/C(=C\c2ccc(-c3ccccc3)cc2-c2ccccc2)C(=O)O1 [Compound 7, (Z)-4-[(1,1′:3′,1′′-Terphenyl)-4′-ylmethylene]-2-methyloxazol-5(4H)-one] | – |
| 20.1 ± 1.44 | 2.56 ± 0.172 | 8 | CC1=N/C(=C\c2cccc(-c3ccccc3)c2-c2ccccc2)C(=O)O1 [Compound 9, (Z)-4-[(1,1′:2′,1′′-Terphenyl)-3′-ylmethylene]-2-methyloxazol-5(4H)-one] | – |
| 14.8 ± 1.18 | 0.457 ± 0.01 | 32 | CC1=N/C(=C\c2cc(-c3ccccc3)cc(-c3ccccc3)c2)C(=O)O1 [Compound 13, (Z)-4-[(1,1′:3′,1′′-Terphenyl)-5′-ylmethylene]-2-methyloxazol-5(4H)-one] | – |
| 10.9 ± 0.161 | 0.32 ± 0.01 | 34 | CC1=N/C(=C\c2cc(-c3ccccc3)ccc2-c2ccccc2)C(=O)O1 [Compound 15, (Z)-4-[(1,1′:4′,1′′-Terphenyl)-2′-ylmethylene]-2-methyloxazol-5(4H)-one] | – |
| 28 ± 1.31 | 0.683 ± 0.05 | 41 | CC1=N/C(=C\c2cc(-c3ccc(F)cc3)ccc2-c2ccc(F)cc2)C(=O)O1 [Compound 20a, (Z)-4-{[4,4′′-Difluoro-(1,1′:4′,1′′-terphenyl)-2′-yl]methylene}-2-methyloxazol-5(4H)-one] | – |
| 36.1 ± 1.12 | 0.348 ± 0.038 | 104 | COc1ccc(-c2ccc(-c3ccc(OC)cc3)c(/C=C3\N=C(C)OC3=O)c2)cc1 [Compound 20b, (Z)-4-{[4,4′′-Dimethoxy-(1,1′:4′,1′′-terphenyl)-2′-yl]methylene}-2-methyloxazol-5(4H)-one] | IC50 (OVCAR3): 41.6 µM; Change of MAGL blocking ability (IC50) with preincubation time (MAGL [2]): did not show any significant increase; IC50 [3]: > 100 µM; Inhibition mechanism in dilution assay (MAGL [4]): reversible inhibition; IC50 (CAOV3): 23.8 µM |
| 17.7 ± 1.2 | 4.19 ± 0.299 | 4 | CC1=N/C(=C\c2cc(-c3ccc(OC(F)(F)F)cc3)ccc2-c2ccc(OC(F)(F)F)cc2)C(=O)O1 [Compound 20c, (Z)-4-{[4,4′′-Bis(trifluoromethoxy)-(1,1′:4′,1′′-terphenyl)-2′-yl]methylene}-2-methyloxazol-5(4H)-one] | IC50 (MAGL [1]; approximate values): 4 to 6 µM |
| 29 ± 1.16 | 6.76 ± 1.13 | 4 | CC1=N/C(=C\c2cc(-c3ccc(C(F)(F)F)cc3)ccc2-c2ccc(C(F)(F)F)cc2)C(=O)O1 [Compound 20d, (Z)-4-{[4,4′′-Bis(trifluoromethyl)-(1,1′:4′,1′′-terphenyl)-2′-yl]methylene}-2-methyloxazol-5(4H)-one] | IC50 (MAGL [1]; approximate values): 4 to 6 µM |
| 11.7 ± 0.895 | 0.628 ± 0.032 | 19 | CC1=N/C(=C\c2cc(-c3cccc(F)c3)ccc2-c2cccc(F)c2)C(=O)O1 [Compound 20e, (Z)-4-{[3,3′′-Difluoro-(1,1′:4′,1′′-terphenyl)-2′-yl]methylene}-2-methyloxazol-5(4H)-one] | – |
| 23.7 ± 1.35 | 0.673 ± 0.023 | 35 | CC1=N/C(=C\c2cc(-c3ccc4c(c3)OCO4)ccc2-c2ccc3c(c2)OCO3)C(=O)O1 [Compound 20f, (Z)-4–[2,5-Bis(benzo[d][1,3]dioxol-5-yl)benzylidene]-2-methyloxazol-5(4H)-one] | – |
| 22.3 ± 1.24 | 0.335 ± 0.002 | 67 | COc1ccc(-c2ccc(-c3ccc(OC)c(F)c3)c(/C=C3\N=C(C)OC3=O)c2)cc1F [Compound 20g, (Z)-4-{[3,3′′-Difluoro-4,4′′-dimethoxy-(1,1′:4′,1′′-terphenyl)-2′-yl]methylene}-2-methyloxazol-5(4H)-one] | – |
| 11.5 ± 0.998 | 0.476 ± 0.039 | 24 | CC1=N/C(=C\c2cc(-c3ccc(Cl)cc3)ccc2-c2ccc(Cl)cc2)C(=O)O1 [Compound 20h, (Z)-4-{[4,4′′-Dichloro-(1,1′:4′,1′′-terphenyl)-2′-yl]methylene}-2-methyloxazol-5(4H)-one] | – |
| – | – | – | O=C(CCCCCc1ccc(-c2ccccc2)cc1)OCc1ccc2c(c1)OCO2 [c21] | Catalepsy or other motor impairments ([5]; mouse): not accompanied by catalepsy or other motor impairments; Effect on clinical progression in EAE mouse model ([5]; multiple sclerosis mouse model): ameliorated the clinical progression |

| SMILES | IC50 (human FAAH) [µM] | IC50 (MAGL [1]; [6]) [µM] | MAGL/FAAH selectivity (MAGL [1]) | also measured |
| --- | --- | --- | --- | --- |
| O=C(Oc1ccc([N+](=O)[O-])cc1)N1CCC(C(O)(c2ccc3c(c2)OCO3)c2ccc3c(c2)OCO3)CC1 [JZL-184, reference compound] | 3.3 ± 0.205 | – | – | – |
